# Legend:
# [1] = molecular target: T1, DPP-IV (Homo sapiens, UniProt P27487); experiment: In vitro DPP-IV inhibition assay (fluorescence, Abnova kit KA1311); format: biochemical; conditions: for inhibition at 100 µM: compound concentration 100 μM, read-out: inhibition rate; for IC50: fluorescence detection, 37 °C, 30 min
# T1 construct: purchased Abnova Co. Ltd. (Taipei, Taiwan) KA1311
# Method: A DPP-IV Inhibitor Screening Assay Kit (KA1311) was purchased from Abnova Co. Ltd. (Taipei, Taiwan). […] The in vitro inhibitory activity of each compound against DPP-IV was determined based on a fluorescence detection method. […] Additionally, a “100% initial activity well” (10 μL dimethyl sulfoxide [DMSO], 30 μL DPP assay buffer, and 10 μL DPP-IV) and a “background well” (10 μL DMSO and 40 μL DPP assay buffer) were prepared. Next, 50 μL of DPP was added to each well and incubated at 37 °C for 30 min. A FlexStation 3 multifunctional microplate reader (Molecular Devices, Sunnyvale, CA, USA) was used to detect the fluorescence value (excitation wavelength: 350–360 nm; emission wavelength: 450–465 nm). […] IC50 values were then calculated using GraphPad Prism 5 (GraphPad Software, La Jolla, CA, USA).
# [2] = set-up: method as in doi:10.1002/ptr.2650080207; conditions: cited from earlier work
# [3] = test system: arthritis in rats; set-up: method as in PMID 11440138; conditions: cited from earlier work
# [4] = test system: Cathepsin L; set-up: method as in PMID 11440138; conditions: cited from earlier work
# [5] = test system: c-Jun N-terminal kinase (JNK) and p38 pathways; set-up: method as in PMID 25448500; conditions: induced by LPS stimulation; cited from earlier work
# [6] = test system: Cathepsin B; set-up: method as in PMID 11440138; conditions: cited from earlier work
# T1 sequence (P27487 whole entry): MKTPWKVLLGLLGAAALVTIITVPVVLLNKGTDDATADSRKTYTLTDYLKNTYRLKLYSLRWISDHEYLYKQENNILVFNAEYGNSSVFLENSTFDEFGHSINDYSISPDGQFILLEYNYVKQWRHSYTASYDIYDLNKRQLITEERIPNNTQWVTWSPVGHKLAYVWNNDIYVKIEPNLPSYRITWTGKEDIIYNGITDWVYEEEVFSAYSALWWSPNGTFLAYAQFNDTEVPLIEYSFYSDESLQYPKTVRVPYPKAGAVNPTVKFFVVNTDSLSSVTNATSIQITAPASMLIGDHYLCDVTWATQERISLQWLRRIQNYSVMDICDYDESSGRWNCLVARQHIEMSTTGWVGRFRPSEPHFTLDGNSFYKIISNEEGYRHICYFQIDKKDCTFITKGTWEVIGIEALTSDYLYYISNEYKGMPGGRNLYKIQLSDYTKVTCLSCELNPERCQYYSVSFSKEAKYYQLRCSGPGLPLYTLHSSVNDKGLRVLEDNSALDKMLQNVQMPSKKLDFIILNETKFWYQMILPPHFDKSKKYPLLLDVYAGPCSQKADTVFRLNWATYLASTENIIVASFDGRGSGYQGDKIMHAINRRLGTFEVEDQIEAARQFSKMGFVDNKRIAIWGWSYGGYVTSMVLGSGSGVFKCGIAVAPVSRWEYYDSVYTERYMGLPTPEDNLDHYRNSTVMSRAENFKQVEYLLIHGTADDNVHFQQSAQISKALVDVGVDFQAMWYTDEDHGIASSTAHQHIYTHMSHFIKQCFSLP
SMILES,inhibition at 100 µM [1] [%],IC50 [1] [µM],hypotensive effect [2],effect on arthritis [3],Cathepsin L inhibition [4],inhibition of JNK and p38 pathways [5],Cathepsin B inhibition [6]
"C[C@@H]1O[C@@H](Oc2ccc(CN=C=S)cc2)[C@H](O)[C@H](O)[C@H]1O [Compound 2, 4-[(α-L-rhamnosyloxy)benzyl] Isothiocyanate]",30.9,158,–,–,–,–,–
"CCOC(=O)NCc1ccc(O[C@@H]2O[C@@H](C)[C@H](O)[C@@H](O)[C@H]2O)cc1 [Compound 1, O-Ethyl-4-[(α-L-rhamnosyloxy)benzyl] carbamate]",71.2,0.798,a certain hypotensive effect,–,–,–,–
"CC(=O)OC[C@H](Cc1ccccc1)NC(=O)[C@H](Cc1ccccc1)NC(=O)c1ccccc1 [Compound 3, Aurantiamide acetate]",23.5,191,–,relieves arthritis,inhibiting,inhibit,inhibiting
